# Test results reported in paper PMC6450673, “Targeted degradation of aberrant tau in frontotemporal dementia patient-derived neuronal cell models” (eLife, 2019).
# Values joined by “and” are separate entries in the source; they are usually repeats but may differ in a detail not shown here. Identical values can stand only once.
# Experiments:
# [1] = biological target: T1, total tau (TAU5) in non-mutant control iPSC-derived neurons (Homo sapiens, UniProt P10636); assay: Human total tau ELISA in control neurons 1-3; type: cell-based; conditions: for TAU5 (total tau by ELISA, relative to vehicle-treated): replicate values
# T1 construct: modeling pathogenic tau species without the need for overexpression of heterologous genes; endogenous in cells; host or cells: 8330-8-RC1, MGH2069-RC1, CTR2-L17-RC2 human iPSC-derived neurons
# T1 sequence (P10636 1-441 isoform P10636-8, stated change not applied): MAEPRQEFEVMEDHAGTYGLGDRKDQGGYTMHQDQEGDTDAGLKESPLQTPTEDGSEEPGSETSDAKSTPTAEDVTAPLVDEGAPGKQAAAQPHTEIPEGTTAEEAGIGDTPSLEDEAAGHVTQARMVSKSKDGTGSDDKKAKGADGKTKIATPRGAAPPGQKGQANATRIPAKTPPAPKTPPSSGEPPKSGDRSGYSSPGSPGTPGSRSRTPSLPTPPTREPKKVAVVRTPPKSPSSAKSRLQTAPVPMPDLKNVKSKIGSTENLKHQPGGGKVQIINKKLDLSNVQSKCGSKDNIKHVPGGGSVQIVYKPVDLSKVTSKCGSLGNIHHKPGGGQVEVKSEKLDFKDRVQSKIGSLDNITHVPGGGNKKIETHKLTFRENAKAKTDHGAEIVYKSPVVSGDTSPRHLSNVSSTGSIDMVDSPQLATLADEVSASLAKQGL
# From the text: (§1) Cells from individuals carrying the tau risk variant A152T (c.1407G > A; NCBI RefSeq NM_001123066, rs143624519), the autosomal dominant mutation P301L (c.C1907T; NCBI NM_001123066, rs63751273), or age-matched non-mutant WT tau were employed in this study (Figure 2—source data 1). Dermal fibroblasts from the tau-P301L carrier and the healthy individual were generated from a skin biopsy from subjects within the MGH Frontotemporal Disorders Unit as part of the MGH Neurodegeneration Repository. Approval for human subjects’ work was obtained under a Partners/MGH-approved IRB Protocol (#2010P001611/MGH). Fibroblasts were reprogrammed into iPSCs, which were subsequently converted into cortical-enriched neural progenitor cells (NPCs) and differentiated into neuronal cells as previously described ([Almeida et al., 2012]; [Seo et al., 2017]; [Silva et al., 2016]; [Sheridan et al., 2011]) (Silva MC, Manuscript in preparation, 2019). Briefly, cells were cultured in 6-well (Fisher Scientific Corning, Pittsburgh, PA) or 96-well (Fisher Scientific Corning) plates coated with poly-ornithine (20 μg/mL in water, Sigma, St. Louis, MO) and laminin (5 μg/mL in PBS, Sigma) (POL-coated), in DMEM/F12-B27 media [70% DMEM (Gibco, Carlsbad, CA), 30% Ham’s-F12 (Fisher Scientific Corning), 2% B27 (Gibco), 1% penicillin-streptomycin (Gibco)]. Media was supplemented with EGF (20 ng/mL, Sigma), FGF (20 ng/mL, Stemgent, Cambridge, MA) and heparin (5 μg/mL, Sigma), to promote NPC proliferation and expansion. The growth factors were withdrawn to promote neural differentiation for 6 to 8 weeks, with half media change two times per week. Cell lines’ identity was authenticated by SANGER sequencing, karyotyping and ACGH analysis at different stages of culture maintenance from iPSC to NPC. All working cell lines tested negative for mycoplasma contamination.
# (§2) Compound treatment in six-well plates was performed in 2 mL media volume by removing 1 mL of conditioned media from the culture and adding 1 mL of new media pre-mixed with the compound at the appropriate 2X concentration, followed by incubation at 37°C for the designated period of time. Compound treatment in 96-well plates was performed in 100 μL media volume by adding compound directly to each well, followed by incubation at 37°C. When testing the effect of drug pre-treatment, the first compound was added as described above for the period of time needed, and then QC-01–175 was added directly onto the media without media exchange.
# (§3) Neuronal cells differentiated in six-well plate format for 6 weeks, were collected as described for western blotting, and lysed in ELISA-compatible buffer (Invitrogen FNN0011), supplemented with 1 mM PMSF, protease (Roche) and phosphatase (Sigma) inhibitors cocktails, for 30 min on ice with quick vortexing. Lysates were clarified by centrifugation at 13,000 rpm at 4°C for 10 min. The clear lysates were then transferred to new microfuge tubes and total protein concentration was quantified with the Pierce BCA Protein Assay Kit (ThermoFisher Scientific). ELISA assays were performed according to manufacturer instructions: Human Total Tau ELISA (Invitrogen Kit KHB0041/KHB0042) and P-Tau[pS396] Human ELISA Kit (Invitrogen Kit KHB7031). Data was plotted using GraphPad Prism version 8.0.
# [2] = biological target: T2, P-tau S396 in non-mutant control iPSC-derived neurons (Homo sapiens, UniProt P10636); assay: P-Tau[pS396] ELISA in control neurons 1-3; type: cell-based; conditions: for S396 P-Tau (ELISA, relative to vehicle-treated): replicate values; for degradation of P-tau S396: 24 hr
# T2 construct: modeling pathogenic tau species without the need for overexpression of heterologous genes; endogenous in cells; host or cells: 8330-8-RC1, MGH2069-RC1, CTR2-L17-RC2 human iPSC-derived neurons
# T2 sequence (P10636 1-441 isoform P10636-8, stated change not applied): as above
# From the text: as §1, §2, §3
# [3] = system: P-tau S396 in tau-P301L patient iPSC-derived neurons; assay: P-Tau[pS396] ELISA in P301L neurons; type: cell-based, human; conditions: for S396 P-Tau (ELISA, relative to vehicle-treated): 24 h, replicate values
# From the text: as §1, §2, §3
# [4] = system: total tau (TAU5) in A152T neurons; assay: Western blot of total tau in A152T neurons; type: cell-based, human; conditions: 24 hr
# From the text: as §1, §2
# Neurons differentiated in six-well plates for 6 weeks were washed and collected in PBS, lysed in RIPA buffer (Boston Bio-Products, Boston, MA) supplemented with 2% SDS (Sigma), protease inhibitors cocktail (Roche Complete Mini tablets, Mannheim, Germany), and phosphatase inhibitors cocktail (Sigma), followed by water sonication (Bransonic Ultrasonic Baths, Thomas Scientific, Danbury, CT) and 20,000 g centrifugation for 20 min. Supernatants were transferred to new tubes and total protein concentration was quantified with the Pierce BCA Protein Assay Kit (ThermoFisher Scientific, Carlsbad, CA). Human recombinant tau protein ladder was purchased from Sigma. Electrophoresis were performed with the Novex NuPAGE SDS-PAGE Gel System (Invitrogen, Carlsbad, CA), by running 10 μg of total protein (pre-boiled in SDS-DTT loading buffer, NEB, Ipswich, MA) on pre-cast SDS-PAGE. Gels were transferred onto PVDF membranes (EMD Millipore) using standard procedures. Membranes were blocked in 5% BSA (Sigma) in Tris-buffered saline with Tween-20 (TBST/Biorad, Hercules, CA) for 2 hr, incubated overnight with primary antibody (see antibody section) at 4°C, followed by corresponding HRP-linked secondary antibody incubation (Cell Signaling Technology, Danvers, MA). […]
# [5] = Control 1, 8330-8-RC1, 24h, 0.001 μM
# [6] = Control 1, 8330-8-RC1, 24h, 0.01 μM
# [7] = Control 1, 8330-8-RC1, 24h, 0.1 μM
# [8] = Control 1, 8330-8-RC1, 24h, 1 μM
# [9] = Control 1, 8330-8-RC1, 24h, 10 μM
# [10] = Control 2, MGH2069-RC1, 24h, 0.001 μM
# [11] = Control 2, MGH2069-RC1, 24h, 0.01 μM
# [12] = Control 2, MGH2069-RC1, 24h, 0.1 μM
# [13] = Control 2, MGH2069-RC1, 24h, 1 μM
# [14] = Control 2, MGH2069-RC1, 24h, 10 μM
# [15] = Control 3, CTR2-L17-RC2, 24h, 0.001 μM
# [16] = Control 3, CTR2-L17-RC2, 24h, 0.01 μM
# [17] = Control 3, CTR2-L17-RC2, 24h, 0.1 μM
# [18] = Control 3, CTR2-L17-RC2, 24h, 1 μM
# [19] = Control 3, CTR2-L17-RC2, 24h, 10 μM
structure (smiles),measurement,setting,value
O=C(CCc1ccc2c(c1)[nH]c1ccncc12)NCCOCCOCCNc1cccc2c1C(=O)N(C1CCC(=O)NC1=O)C2=O (centres unmarked) [QC-01–175],"TAU5 (total tau by ELISA, relative to vehicle-treated)",[1]; [5],1.03 and 0.98 and 1.20 and 1.01
same,"TAU5 (total tau by ELISA, relative to vehicle-treated)",[1]; [6],0.91 and 0.87 and 0.97 and 1.00
same,"TAU5 (total tau by ELISA, relative to vehicle-treated)",[1]; [7],0.93 and 1.07 and 0.97 and 0.84
same,"TAU5 (total tau by ELISA, relative to vehicle-treated)",[1]; [8],0.99 and 0.94 and 0.95 and 0.71
same,"TAU5 (total tau by ELISA, relative to vehicle-treated)",[1]; [9],0.74 and 1.00 and 0.91 and 0.86
same,"TAU5 (total tau by ELISA, relative to vehicle-treated)",[1]; [10],0.91 and 0.93 and 1.00 and 1.15
same,"TAU5 (total tau by ELISA, relative to vehicle-treated)",[1]; [11],0.82 and 0.85 and 0.89 and 0.99
same,"TAU5 (total tau by ELISA, relative to vehicle-treated)",[1]; [12],0.76 and 0.78 and 0.92 and 0.71
same,"TAU5 (total tau by ELISA, relative to vehicle-treated)",[1]; [13],0.87 and 0.89 and 0.98 and 0.78
same,"TAU5 (total tau by ELISA, relative to vehicle-treated)",[1]; [14],0.71 and 0.83 and 0.74 and 0.76
same,"TAU5 (total tau by ELISA, relative to vehicle-treated)",[1]; [15],1.10 and 1.07 and 0.99 and 1.31
same,"TAU5 (total tau by ELISA, relative to vehicle-treated)",[1]; [16],0.96 and 1.12 and 1.00 and 0.90
same,"TAU5 (total tau by ELISA, relative to vehicle-treated)",[1]; [17],1.08 and 0.96 and 0.93 and 1.00
same,"TAU5 (total tau by ELISA, relative to vehicle-treated)",[1]; [18],0.91 and 0.81 and 0.71 and 0.95
same,"TAU5 (total tau by ELISA, relative to vehicle-treated)",[1]; [19],0.93 and 0.83 and 1.17 and 0.95
same,degradation of tau,"[1]; all three control neurons, ELISA, 24 hr, concentrations up to 1 μM",No significant degradation
same,degradation of total tau,"[1]; control line 1, 10 μM, 24 hr",~ 20%
same,degradation of total tau,"[1]; control line 2, 10 μM, 24 hr",~ 20%
same,degradation of total tau,"[1]; control line 3, 10 μM, 24 hr",no effect
same,"dose dependence of effect on tau, ELISA","[1]; control neurons (8330–8-RC1, MGH2069-RC1, CTR2-L17-RC2), 24 hr",did not show a dose-dependent effect
same,"S396 P-Tau (ELISA, relative to vehicle-treated)",[2]; [5],0.90 and 1.07 and 1.00 (2×)
same,"S396 P-Tau (ELISA, relative to vehicle-treated)",[2]; [6],0.97 (2×) and 0.67 and 0.90
same,"S396 P-Tau (ELISA, relative to vehicle-treated)",[2]; [7],0.71 and 0.84 and 1.21 and 0.90
same,"S396 P-Tau (ELISA, relative to vehicle-treated)",[2]; [8],0.85 and 1.01 and 0.80 and 0.95
same,"S396 P-Tau (ELISA, relative to vehicle-treated)",[2]; [9],0.55 and 0.65 and 0.77 and 0.86
same,"S396 P-Tau (ELISA, relative to vehicle-treated)",[2]; [10],0.71 and 0.83 and 1.11 and 0.91
same,"S396 P-Tau (ELISA, relative to vehicle-treated)",[2]; [11],0.89 and 1.05 and 1.10 and 0.99
same,"S396 P-Tau (ELISA, relative to vehicle-treated)",[2]; [12],0.85 and 1.00 and 0.99 and 1.30
same,"S396 P-Tau (ELISA, relative to vehicle-treated)",[2]; [13],1.14 (2×) and 1.04 and 0.97
same,"S396 P-Tau (ELISA, relative to vehicle-treated)",[2]; [14],0.95 and 1.12 and 0.78 and 0.91
same,"S396 P-Tau (ELISA, relative to vehicle-treated)",[2]; [15],0.94 and 0.77 and 0.84 and 1.00
same,"S396 P-Tau (ELISA, relative to vehicle-treated)",[2]; [16],1.06 and 1.13 and 1.00 and 0.97
same,"S396 P-Tau (ELISA, relative to vehicle-treated)",[2]; [17],0.95 and 0.78 and 1.00 and 0.90
same,"S396 P-Tau (ELISA, relative to vehicle-treated)",[2]; [18],1.03 and 0.85 and 0.87 and 0.72
same,"S396 P-Tau (ELISA, relative to vehicle-treated)",[2]; [19],0.70 and 0.95 and 0.89 and 0.74
same,degradation of P-tau S396,"[2]; all three control neurons, ELISA, concentrations up to 1 μM",No significant degradation
same,degradation of P-tau S396,"[2]; control line 1, 10 μM",~ 40%
same,degradation of P-tau S396,"[2]; control line 2, 10 μM",no significant effect
same,degradation of P-tau S396,"[2]; control line 3, 10 μM",no significant effect
same,"S396 P-Tau (ELISA, relative to vehicle-treated)",[3]; 0.001 μM compound,0.69 and 1.00 and 0.62 and 0.70 and 0.58 and 0.77 (2×) and 0.75 and 0.89 and 0.79 and 0.65 and 0.90
same,"S396 P-Tau (ELISA, relative to vehicle-treated)",[3]; 0.01 μM compound,0.69 and 0.67 and 0.61 and 0.70 and 0.98 and 0.73 and 0.71 and 0.65 and 0.75 and 0.62 and 0.97 and 0.81
same,"S396 P-Tau (ELISA, relative to vehicle-treated)",[3]; 0.05 μM compound,0.43 and 0.42 (2×) and 0.38 and 0.44 and 0.36 (2×) and 0.41 and 0.40 and 0.34 and 0.39 and 0.71
same,"S396 P-Tau (ELISA, relative to vehicle-treated)",[3]; 0.1 μM compound,0.43 (3×) and 0.41 and 0.38 and 0.36 (2×) and 0.42 and 0.39 and 0.44 (2×) and 0.34
same,"S396 P-Tau (ELISA, relative to vehicle-treated)",[3]; 0.5 μM compound,0.32 (2×) and 0.31 (3×) and 0.28 and 0.27 and 0.34 and 0.33 and 0.35 and 0.29 and 0.23
same,"S396 P-Tau (ELISA, relative to vehicle-treated)",[3]; 1 μM compound,0.34 (2×) and 0.33 (3×) and 0.30 (2×) and 0.35 (2×) and 0.29 (2×) and 0.49
same,"S396 P-Tau (ELISA, relative to vehicle-treated)",[3]; 10 μM compound,0.76 and 0.74 and 0.68 (2×) and 0.77 and 0.64 and 0.67 and 0.65 and 0.59 and 0.73 and 0.41 and 0.38
same,"Dmax, 4h, P-tau S396","[3]; ELISA, 4 hr, at 500 nM",80%
same,"Dmax, 24h, P-tau S396","[3]; ELISA, 24 hr, achieved at 1 μM",60%
same,"concentration at which maximal total tau clearance (Dmax, 24h) was achieved",[4],10 µM
same,"Dmax, 24h for total tau",[4]; averaged across independent replicates (Figure 2—figure supplement 1),75%
